Like-named read-outs stand apart in the source and are kept apart here. One block for each compound: values may come before it.
Assays:
[1] = system: calu-3 cells (confluent monolayer); details: for TEER after 2 h Average / TEER after 24 h Average: human
[2] = system: calu-3 cells; details: depending on the concentration; cited from earlier work
[3] = system: calu-3 cells (confluent monolayer); test: Trans-epithelial electrical resistance (TEER) of calu-3 monolayer; details: for TEER [% of 0 hours]: positive control 0.1%

TEER after 2 h Average ([1]; 0.1 %): 116% | TEER after 2 h Average ([1]; 0.5 %): 120% | TEER after 2 h Average ([1]; 5 %): 36% | TEER after 2 h Average ([1]; 10 %): 14% | TEER after 24 h Average ([1]; 0.1 %): 83% | TEER after 24 h Average ([1]; 0.5 %): 83% | TEER after 24 h Average ([1]; 5 %): 75% | TEER after 24 h Average ([1]; 10 %): 43%
SMILES: CC(O)CO (stereo not drawn) [Propylene glycol, propylene glycol]
effect on the integrity of the calu-3 monolayer [1]: significant and largely non-reversible damage | effect on calu-3 cells [2]: kills calu-3 cells

SMILES: CCCCCCCCCCCCOS(=O)(=O)[O-].[Na+] [SDS, sodium dodecyl sulphate]
TEER after 2 h Average ([3]; Conc. 0.001 %): 114% | TEER after 24 h Average ([3]; Conc. 0.001 %): 107% | TEER after 2 h Average ([3]; Conc. 0.010 %): 7% | TEER after 24 h Average ([3]; Conc. 0.010 %): 2% | TEER after 2 h Average ([3]; Conc. 0.100 %): 3% | TEER after 24 h Average ([3]; Conc. 0.100 %): 2% | effect on the integrity of the calu-3 monolayer ([3]; conclusion from TEER values): significant and largely non-reversible damage | TEER [% of 0 hours] ([3]; time 0 h): 20% | TEER [% of 0 hours] ([3]; time 1 h): 19% | TEER [% of 0 hours] ([3]; time 2 h): 19% | TEER [% of 0 hours] ([3]; time 24 h): 11%

Reference: patent US9724382B2, “Pharmaceutical compositions comprising cyclosporin” (PARI Pharma GmbH, priority 2005, dated 2017)
